Laboratory results taken from publication PMC7317717, “Electrophysiological Characterization of Transport Across Outer‐Membrane Channels from Gram‐Negative Bacteria in Presence of Lipopolysaccharides” (Angewandte Chemie (International Ed. in English), 2020).
Counter-ions that a name gives are not always drawn.

Experiments:
Experiment in all cases: single-channel electrophysiology, planar lipid bilayer, ion current blockage events
Type in all cases: binding
[1] = biological target: T1, OmpF (OmpF-WT) (Escherichia coli, UniProt P02931); settings: purified OmpF without LPS; 250 uM compound; 200 mM KCl, 20 mM MES, pH 6.0; negative voltage (-50 mV stated for the OMV values)
T1 construct: purified wild-type OmpF, mature porin, homotrimer, reconstituted in planar lipid bilayer; OMV form overexpressed in E. coli BL21(DE3)omp8
T1 sequence (P02931 23-362): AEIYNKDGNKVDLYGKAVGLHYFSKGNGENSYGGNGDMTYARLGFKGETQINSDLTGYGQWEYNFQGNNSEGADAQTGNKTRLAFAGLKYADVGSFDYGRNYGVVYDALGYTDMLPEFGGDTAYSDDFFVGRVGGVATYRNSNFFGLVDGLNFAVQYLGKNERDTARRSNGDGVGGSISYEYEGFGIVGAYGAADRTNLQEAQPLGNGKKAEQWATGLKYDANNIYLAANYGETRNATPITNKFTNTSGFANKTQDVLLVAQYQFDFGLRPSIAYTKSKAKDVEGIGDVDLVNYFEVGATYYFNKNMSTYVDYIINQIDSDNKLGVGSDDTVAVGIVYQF

[2] = biological target: T1, OmpF (OmpF-WT); settings: purified OmpF without LPS; 250 uM compound; 200 mM KCl, 20 mM MES, pH 6.0; negative voltage (-50 mV stated for the OMV values); remark: listed apart in the source
From the text: single-channel electrophysiology, planar lipid bilayer, ion current blockage events on OmpF (OmpF-WT) | Higher event rates are found using purified OmpF.

[3] = biological target: T1, OmpF (OmpF-WT); settings: purified OmpF; 10 uM compound; 1 M KCl, 20 mM MES, pH 6

Row | Structure (SMILES) | k off [1] [s⁻¹] | k on [2] | event rate [3]
1 | CCN1CCN(c2cc3c(cc2F)c(=O)c(C(=O)O)cn3C2CC2)CC1 [Enrofloxacin] | 500 | 72,000 s^-1 M^-1 | –
2 | NC[C@H]1O[C@H](O[C@H]2[C@H](O)[C@@H](O[C@H]3O[C@H](CO)[C@@H](O)[C@H](N)[C@H]3O)[C@H](N)C[C@@H]2N)[C@H](O)[C@@H](O)[C@@H]1O [Kanamycin sulfate] | – | – | Kanamycin sulfate permeation for both batches of preparation
